The results in this text go back to patent US11331312B2, “Treatment of H-Ras-driven tumors” (MEMORIAL SLOAN-KETTERING CANCER CENTER, priority 2014, dated 2022).

Data set [1] in a line: Body weight and tolerability of treated mice. The format is in vivo, mouse. To be noted: 80 mg/kg BID. How it is done: (§1) The activity of these compounds in vivo was explored. Mice were treated for 2 weeks with tipifarnib or lonafarnib at 80 mg/kg twice daily (drug mixed in 20% beta-cyclodextran and given by gavage). […] Treatment with FTIs was well tolerated in the mice with no significant differences in animal weight between vehicle and drug at 14 days (FIG. 6). Next mice were treated with Tipifarnib or vehicle for an extended time course. Of note, for this experiment tumors in each group were size-matched at the time of treatment initiation (FIG. 8).

Data set [2] deals with MAPK pathway signaling effectors. Description: Western blots of MAPK pathway signaling effectors in HP-ATC1 mouse cell line. It counts as cell-based. To be noted: HP-ATC1 cells, 1.5% serum, increasing concentrations of drug, Western blot. How it is done:
(§2) FIGS. 2A and B show the results of exposure of mouse cell lines from tumor bearing Tpo-Cre/FR-HrasG12V/p53flox/flox mice to farnesyltransferase inhibitors. Mouse cell lines were generated from tumor bearing Tpo-Cre/FR-HrasG12V/p53flox/flox mice by collagenase/dispase digestion and maintained in Coon's F-12 media with serum. After 15 passages, cells were plated in 1.5% serum and exposed to increasing concentrations of indicated drug. (A) Western blots were performed for indicated proteins (antibodies from Cell Signaling with exception of Hras which was from Santa Cruz).
(§3) Development and characterization of mouse cell lines from TPO-Cre, Hras-G12V+/+, p53f/f mice: In order to study this model in vitro, we developed a mouse cell line (HP-ATC1) from an animal with ATC. The cell line was confirmed to harbor the HrasG12V mutation, and maintained primary tumor characteristics, including its spindle shape and the relative expression of E-cadherin and vimentin through serial passaging (x6-10).
(§4) The FTIs Tipifarnib and Lonafarnib block MAPK signaling and growth of mouse Tpo-Cre, HRas-G12V+/+, p53f/f cell line: There are currently no therapies that directly target oncogenic forms of oncogenic Ras.
(§5) Mouse cell lines were generated from tumor bearing Tpo-Cre/FR-HrasG12V/p53flox/flox mice by collagenase/dispase digestion and maintained in Coon's F-12 media with serum. […]

Data set [3] has as its system HP-ATC1 cells. Description: 6 day proliferation assay in HP-ATC1 mouse cell line. The format is cell-based. The conditions noted are these: 1.5% serum, 6 day assay, increasing concentrations of drug. As for the experimental part:
as §2, §3, §4, §5

Data set [4] deals with Hras-G12V+/+/p53-null thyroid cancers. In words: 2-week FTI treatment of mice with thyroid cancers, tumor volume by 3D ultrasound. To be noted: 80 mg/kg twice daily by gavage, 2 weeks (14 days). It counts as in vivo, mouse. As for the experimental part: FIG. 3 is a schematic showing the design of the in vivo study of tipifarnib in Tpo-Cre/FR-Hras^G12V/p53^flox/flox mice. Mice were treated for 14 days with tipifarnib 80 mg/kg BID by gavage. Tipifarnib was prepared in 20% beta-cyclodextran. 3D ultrasound was performed before and after treatment to assess percent change in tumor volume.
Tumors in each treatment group were sized matched at the beginning of therapy.
FIG. 5 is a waterfall plot of the same mice but with an additional cohort of mice treated with lonafarnib added. Of note the lonafarnib treated mice were not size matched to the vehicle group.
as §1

“Also recorded” adds a separate entry of the source.

For the molecule `Cn1cncc1[C@@](N)(c1ccc(Cl)cc1)c1ccc2c(c1)c(-c1cccc(Cl)c1)cc(=O)n2C` [tipifarnib], in data set [1] (14 days), the “animal weight, drug vs vehicle” value is given as “No differences”. Also, in data set [1] (two weeks of treatment), the toxicity / tolerability result is “minimal toxicity”.

As for `NC(=O)N1CCC(CC(=O)N2CCC([C@H]3c4ncc(Br)cc4CCc4cc(Cl)cc(Br)c43)CC2)CC1` [lonafarnib], the “inhibition of MAPK effector phosphorylation” value in data set [2] is reported as “dose-dependent inhibition”. In data set [3], the inhibition of proliferation entry was “dose-dependent inhibition of proliferation”. Moreover, the “change in thyroid tumor volume (ultrasound) compared to vehicle-treated mice” value in data set [4] is on record as “Consistent inhibition of growth; also recorded: Significant reduction in thyroid tumor volume”.
